Test results reported in patent publication US20040072770A1, “Methods for specifically inhibiting histone deacetylase-7 and 8” (priority 2002, published 2004).

How the values were obtained:
Du145 cells = experiment: Growth inhibition by antisense oligos, Du145; format: cell-based, human; settings: 50 nM, 48 hour, vs cells treated with lipofectin
Procedure: (§1) For all ex vivo oligo treatment, human A549 human […] carcinoma cells were seeded in 10 cm tissue culture dishes one day prior to oligonucleotide treatment. The cell lines were obtained from the American Type Culture Collection (ATCC) (Manassas, Va.) and were grown under the recommended culture conditions. Before the addition of the oligonucleotides, cells were washed with PBS (phosphate buffered saline). Next, lipofectin transfection reagent (GIBCO BRL Mississauga, Ontario, Calif.), at a concentration of 6.25 μg/ ml, was added to serum free OPTIMEM medium (GIBCO BRL, Rockville, Md.), which was then added to the cells. The oligonucleotides were added directly to the cells (i.e., one oligonucleotide per plate of cells). Mismatched oligonucleotides were used as controls. The same concentration of oligonucleotide (e.g., 50 nM) was used per plate of cells for each oligonucleotide tested.
(§2) In order to determine the effect of HDAC ODNs on cell growth inhibition and cell death through apoptosis, A549, T24, DuI45, HCT116 cells (ATCC, Manassas, Va.), or HMEC cells (BioWhittaker, Walkersville, Md.) were treated with HDAC ODNs as previously described.
(§3) For the cell growth inhibition analysis, human cancer or normal cells were treated with 50 nM of paired AS or MM oligos directed against human HDAC-1, HDAC-7 or HDAC-8for up to 96 hours. Cell numbers were counted every day by trypan blue exclusion. Percentage of inhibition was calculated as (100 - AS cell numbers/control cell numbers)%.

HCT116 cells = experiment: Apoptosis (Cell Death Detection ELISA), HCT116; format: cell-based, human; settings: 50 nM, 48 hours, over mismatch control
Procedure: as §1, with “tested. […]” for “tested.”
For the apoptosis study, cells were analyzed using the Cell Death Detection ELISA^Plus kit (Roche Diagnostic GmBH, Mannheim, Germany) according to the manufacturer's directions. […] Each sample was analyzed in duplicate. ELISA reading was done using a MR700 plate reader (DYNEX Technology, Ashford, Middlesex, England) at 410 nm. […]

MDAmb231 cells [1] = experiment: Apoptosis (Cell Death Detection ELISA), MDAmb231; format: cell-based, human; settings: 50 nM, 48 hours, over mismatch control
H446 cells = experiment: Growth inhibition by antisense oligos, H446; format: cell-based, human; settings: 75 nM treatment for 2 days, vs cells treated with lipofectin
MCF-7 cells [2] = experiment: Growth inhibition by antisense oligos, MCF-7; format: cell-based, human; settings: 75 nM treatment for 2 days, vs cells treated with lipofectin
Procedure: [The procedure below names another cell line; the source lists this cell line under the same test.] as §1, with “tested. […]” for “tested.”
as §3

MCF-7 cells [3] = experiment: Apoptosis (Cell Death Detection ELISA), MCF-7; format: cell-based, human; settings: 50 nM, 48 hours, over mismatch control
A549 cells [4] = experiment: Growth inhibition by antisense oligos, A549; format: cell-based, human; settings: 50 nM, 48 hour, vs cells treated with lipofectin
Procedure: as §1, §2, §3

T24 cells [5] = experiment: Growth inhibition by antisense oligos, T24; format: cell-based, human; settings: 50 nM, 48 hour, vs cells treated with lipofectin
Procedure: as §1, with “tested. […]” for “tested.”
as §3

MDAmb231 cells [6] = experiment: Inhibition of agar colony formation, MDAmb231; format: cell-based, human; settings: 50 nM oligos for 48 hours, vs cells treated with lipofectin
T24 cells [7] = experiment: Apoptosis (Cell Death Detection ELISA), T24; format: cell-based, human; settings: 50 nM, 48 hours, over mismatch control
Procedure: as §1, §2
(§4) For the apoptosis study, cells were analyzed using the Cell Death Detection ELISA^Plus kit (Roche Diagnostic GmBH, Mannheim, Germany) according to the manufacturer's directions. Typically, 10,000 cells were plated in 96-well tissue culture dishes for 2 hours before harvest and lysis. Each sample was analyzed in duplicate. ELISA reading was done using a MR700 plate reader (DYNEX Technology, Ashford, Middlesex, England) at 410 nm. The reference was set at 490 nm.

A549 cells [8] = experiment: Inhibition of agar colony formation, A549; format: cell-based, human; settings: 50 nM oligos for 48 hours, vs cells treated with lipofectin
A549 cells [9] = experiment: Apoptosis (Cell Death Detection ELISA), A549; format: cell-based, human; settings: 50 nM, 48 hours, over mismatch control
Procedure: as §1, §2, §4
[…] Similarly, A549 cells were treated with 20 nM of HDAC1 AS in combination with 20 nM of each of AS inhibitors against human HDAC2 to HDAC8. After 48 hour treatment, A549 cells were harvested and analyzed for apoptosis by ELISA as described previously. Apoptosis of A549 cells by AS inhibition was compared to that of cells treated with 1 uM TSA for 16 hours. […] The control oligo UMM had no effect on induction of apoptosis.

human HDAC-1 RNA = experiment: HDAC-1 RNA expression screen in T24 cells, Northern blot; format: cell-based; settings: 100 nM, 24 hours
Procedure: To identify antisense oligodeoxynucleotide (ODN) capable of inhibiting HDAC-1 expression in human cancer cells, eleven phosphorothioate ODNs containing sequences complementary to the 5′ or 3′ UTR of the human HDAC-1 gene (GenBank Accession No. U50079) were initially screened in T24 cells at 100 nM. Cells were harvested after 24 hours of treatment, and HDAC-1 RNA expression was analyzed by Northern blot analysis. […] HDAC-1 MM oligo was created as a control; compared to the antisense oligo, it has a 6-base mismatch.

MDAmb231 cells [10] = experiment: Growth inhibition by antisense oligos, MDAmb231; format: cell-based, human; settings: 50 nM, 48 hour, vs cells treated with lipofectin
Procedure: [The procedure below names another cell line; the source lists this cell line under the same test.] as §1, with “tested. […]” for “tested.”
as §3

5′-GAAACGTGAGGGACTCAGCA-3′ (chemistry not given here) [HD1 AS1]
Growth Inhibition Du145 (Du145 cells): + (“+” means >35% inhibition of cell growth by antisense oligos (50 nM, 48 hour) compared to that of cells treated with lipofectin)
Apoptosis HCT 116 (HCT116 cells): + (“+” means the induction of apoptosis at least 2 fold over mismatch control (50 nM, 48 hours))
Apoptosis MDAmb 231 (MDAmb231 cells [1]): + (“+” means the induction of apoptosis at least 2 fold over mismatch control (50 nM, 48 hours))
Growth Inhibition H446 (H446 cells): + (“+” means >35% inhibition of cell growth by antisense oligos (50 nM, 48 hour) compared to that of cells treated with lipofectin)
Growth Inhibition MCF-7 (MCF-7 cells [2]): + (“+” means >35% inhibition of cell growth by antisense oligos (50 nM, 48 hour) compared to that of cells treated with lipofectin)
Apoptosis MCF-7 (MCF-7 cells [3]): + (“+” means the induction of apoptosis at least 2 fold over mismatch control (50 nM, 48 hours))
Growth Inhibition A549 (A549 cells [4]): + (“+” means >35% inhibition of cell growth by antisense oligos (50 nM, 48 hour) compared to that of cells treated with lipofectin)
Growth Inhibition T24 (T24 cells [5]): + (“+” means >35% inhibition of cell growth by antisense oligos (50 nM, 48 hour) compared to that of cells treated with lipofectin)
inhibition of agar colony formation MDAmb 231 (MDAmb231 cells [6]): + (“+” means >35% inhibition of agar colony formation of cells treated with 50 nM oligos for 48 hours compared to that of cells treated with lipofectin)
Apoptosis T24 (T24 cells [7]): + (“+” means the induction of apoptosis at least 2 fold over mismatch control (50 nM, 48 hours))
inhibition of agar colony formation A549 (A549 cells [8]): + (“+” means >35% inhibition of agar colony formation of cells treated with 50 nM oligos for 48 hours compared to that of cells treated with lipofectin)
Apoptosis A549 (A549 cells [9]): + (“+” means the induction of apoptosis at least 2 fold over mismatch control (50 nM, 48 hours))
HDAC-1 RNA expression, screen (human HDAC-1 RNA): antisense activity to human HDAC-1
Growth Inhibition MDAmb 231 (MDAmb231 cells [10]): + (“+” means >35% inhibition of cell growth by antisense oligos (50 nM, 48 hour) compared to that of cells treated with lipofectin)
